In data set [1] the target is PDEV (UniProt O76074). Briefly: Cyclic nucleotide phosphodiesterase (PDE) assay, measurement of inhibition of PDEV. The format is biochemical, rabbit or human. The following applies: PDEV isolated from rabbit and human tissues; 1 μM cGMP, 10% DMSO, 30° C., 30 minutes. The procedure:
Cyclic Nucleotide Phosphodiesterase (PDE) Assay
PDEV was isolated from rabbit and human tissues according to the protocol described by Boolell et al. (Boolell, M., Allen, M. J., Ballard, S. A., Ge[o-Attee, S., Muirhead, G. J., Naylor, A. M., Osterdoh, I. H., and Gingell, C) in International Journal of Impotence Research 1996 8, 47-52 with minor modifications.
Briefly, rabbit or human tissues were homogenized in an ice-cold buffer solution containing 20 mM HEPES (pH 7.2), 0.25M sucrose, 1 mM EDTA, and 1 mM phenylmethylsulphonyl fluoride (PMSF). The homogenates were centrifuged at 100,000 g for 60 minutes at 4° C. The supernatant was filtered through […] filter and loaded on a Pharmacia Mono Q anion exchange column (1 ml bed volume) that was equilibrated with 20 mM HEPES, 1 mM EDTA and 0.5 mM PMSF. After washing out unbound proteins, the enzymes were eluted with a linear gradient of 100-600 mM NaCl in the same buffer (35 to 50 ml total, depending on the tissue. Enzymes from the skeletal muscle, corpus cavernosum, retina, heart and platelet were eluted with 35, 40, 45, 50, and 50 ml respectively.) The column was run at a flow rate of 1 ml/min and 1 ml fractions were collected. […]
The assays were adapted to a 96-well format. […] An aliquot of 200 μl was taken and counted by liquid scintillation. PDE activity was expressed as pmol cyclic nucleotide hydrolyzed/min/ml of enzyme preparation. […]

Data set [2] deals with men who suffer from ED. As to conditions: cited from earlier work.

Take `O=C1c2ccccc2NC23OC12CN(Cc1ccccc1)C3c1ccc2c(c1)OCO2` (centres unmarked) [Compound 1]: 545 nM corresponded to half-maximal inhibition in data set [1] (IC50).

`O=c1c2ccccc2[nH]c2c(-c3ccc4c(c3)OCO4)n(Cc3ccccc3)cc12` [Compound 2] gave an IC50 in data set [1] of 299 nM.

With `CCCc1nn(C)c2c(=O)[nH]c(-c3cc(S(=O)(=O)N4CCN(C)CC4)ccc3OCC)nc12` [sildenafil, 5-[2-ethoxy-5-(4-methylpiperazin-1-ylsulphonyl)phenyl]-1-methyl-3-n-propyl-6,7-dihydro-1H-pyrazolo[4,3-d]pyrimidin-7-one], the “improved sexual function, share of men” value in data set [2] (men who suffer from ED of psychogenic or organic etiology, clinical studies) is “about 70%”. The “improved erections, share of patients” value in data set [2] (patients who had undergone a radical prostatectomy, versus 15% on placebo) was 43%. In data set [2] (use of sildenafil, result from non-selective effects on a variety of tissues), the undesirable side effects result was “headache, flushing and disrupted color vision”.

As usually defined, the IC50 is the concentration needed to halve the response being measured.

The values are drawn from patent publication US6800625B2, “Substituted 2,4-dihydro-pyrrolo[3,4-b]quinolin-9-one derivatives useful as phosphodiesterase inhibitors” (Janssen Pharmaceutica N.V., priority 2002, dated 2004).
